Where a name gives a salt, the structure may show the parent alone.
Assays:
[1] = biological target: T1, human Endothelial Differentiation G-protein Coupled Receptor 3 (EDG3), S1P3 receptor (Homo sapiens, UniProt Q99500); test: S1P3 Assay (GeneBLAzer EDG3-Ga15-NFAT-bla HEK 293T beta-lactamase reporter, agonist dose response); type: cell-based; conditions: EDG3-Ga15-NFAT-bla HEK 293T cells, blue/green emission ratio, 10 point dose response, free base or salt form; read-out: pEC50 (S1P3 assay) (converted)
T1 construct: expressed in transfected cells; host or cells: GeneBLAzer EDG3-Ga15-NFAT-bla HEK 293T
T1 sequence (Q99500 whole entry): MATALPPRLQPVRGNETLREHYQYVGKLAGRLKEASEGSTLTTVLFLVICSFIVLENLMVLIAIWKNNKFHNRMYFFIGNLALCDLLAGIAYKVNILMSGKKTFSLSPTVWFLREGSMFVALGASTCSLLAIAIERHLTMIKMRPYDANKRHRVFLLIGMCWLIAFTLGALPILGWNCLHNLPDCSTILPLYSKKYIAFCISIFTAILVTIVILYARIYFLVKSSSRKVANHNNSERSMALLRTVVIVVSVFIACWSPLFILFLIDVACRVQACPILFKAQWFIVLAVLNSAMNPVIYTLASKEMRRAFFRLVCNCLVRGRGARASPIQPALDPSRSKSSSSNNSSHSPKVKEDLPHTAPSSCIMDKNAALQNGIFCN
Method: GeneBLAzer EDG3-Ga15-NFAT-bla HEK 293T cells (contain the human Endothelial Differentiation G-protein Coupled Receptor 3 (EDG3) and a beta-lactamase reporter gene under control of a NFAT response element and a promiscuous G Protein, Ga15, stably integrated into the GeneBLAzer Ga15-NFAT-bla HEK 293T cell line) were harvested from growth medium and suspended in assay medium (90% DMEM, 10% Charcoal-stripped FBS, 0.1 mM NEAA, 25 mM HEPES (pH 7.3), 100 U/ml penicillin, 100 μg/ml streptomycin) at a density of […]. All test compounds were dissolved in DMSO at a concentration of 10 mM and were prepared in 100% DMSO to provide 10 point dose response curves. Test compounds in the free base or in a salt form were prepared by Velocity 11 Bravo automation (Agilent) were added to wells in columns 2-11 and 13-22; DMSO was added to wells in columns 12 and 23 as unstimulated controls and assay medium was added to wells in columns 1 and 24 as cell-free controls. An S1P3 agonist was added to wells in row 2, columns 2-11 as stimulated controls and test compounds were added to wells in row 2, columns 13-22 and rows 3-15, columns 2-11/13-22 (row 1 and 16 were empty and not used). Compounds in solution were added to the assay plate (Greiner 781090) using an Echo (Labcyte) dose-response program (50 nl/well). The unstimulated and cell-free controls were loaded with 50 nl/well pure DMSO to ensure that the DMSO concentration was constant across the plate for all assays.
50 μl of the cell suspension was added to each well in columns 2-23 of the plate (˜10,000 cells per well). 50 μl of assay medium was added to each well in the cell-free controls (columns 1 and 24). The cells were incubated overnight at 37° C./5% CO2.
(§1) 10 μl of 6× substrate mixture (LiveBLAzer™-FRET B/G substrate (CCF4-AM) Cat # K1096 from Invitrogen, Inc.) was added to each well using Bravo automation and the plates incubated at room temperature for 2 h in the dark. The plate was finally read on EnVision using one excitation channel (409 nm) and two emission channels (460 nm and 530 nm).
(§2) The blue/green emission ratio (460 nm/530 nm) was calculated for each well, by dividing the background-subtracted Blue emission values by the background-subtracted Green emission values. The dose response curve is based on sigmoidal dose-response model. All ratio data was normalized based upon the maximum emission ratio of positive control and minimum emission ratio of negative control (DMSO) on each plate. The intrinsic activity (IA) of each compound is defined as relative response normalised to a reference compound, whose maximum response is defined as 100% after curve fitting.

[2] = biological target: T2, human Endothelial Differentiation Gene 1 (EDG1), S1P1 receptor (Homo sapiens, UniProt P21453); test: S1P1 Assay (Tango EDG1-bla/U2OS beta-lactamase reporter, agonist dose response); type: cell-based; conditions: EDG1-bla/U2OS cells, blue/green emission ratio, 10 point dose response, free base or salt form; read-out: pEC50 (S1P1 assay) (converted)
T2 construct: TEV protease site; Gal4-VP16 transcription factor; expressed in transfected cells; host or cells: EDG1-bla/U2OS (Tango GPCR-bla U2OS parental cell line)
T2 sequence (P21453 whole entry, the tested form may be a part): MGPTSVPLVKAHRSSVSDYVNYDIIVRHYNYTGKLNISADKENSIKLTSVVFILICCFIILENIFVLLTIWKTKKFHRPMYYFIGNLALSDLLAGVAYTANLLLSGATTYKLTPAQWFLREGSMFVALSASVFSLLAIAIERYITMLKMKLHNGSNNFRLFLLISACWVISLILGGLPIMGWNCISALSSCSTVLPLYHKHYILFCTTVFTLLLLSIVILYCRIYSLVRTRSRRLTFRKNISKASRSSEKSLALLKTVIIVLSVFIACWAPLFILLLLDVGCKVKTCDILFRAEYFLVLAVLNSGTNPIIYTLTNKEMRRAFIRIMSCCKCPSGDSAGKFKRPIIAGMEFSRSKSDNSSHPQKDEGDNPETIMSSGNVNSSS
Method: Recombinant EDG1-bla/U2OS cells (contain the human Endothelial Differentiation Gene 1 (EDG1) linked to a TEV protease site and a Gal4-VP16 transcription factor stably integrated into the Tango GPCR-bla U2OS parental cell line) were harvested from growth medium and passaged into assay medium (Invitrogen Freestyle Expression Medium). The cells were starved for 24 hours at 37° C., 5% CO2, harvested and resuspended in assay medium at a density of ˜200,000 cells/ml. All test compounds were dissolved in DMSO at a concentration of 10 mM and were prepared in 100% DMSO to provide 10 point dose response curves. Test compounds in the free base or in a salt form were prepared by Velocity11 Bravo automation (Agilent) were added to wells in columns 2-11 and 13-22; DMSO was added to wells in columns 12 and 23 as unstimulated controls and assay medium was added to wells in columns 1 and 24 as cell-free controls. An S1P1 agonist was added to wells in row 2, columns 2-11 as stimulated controls and test compounds were added to wells in row 2, columns 13-22 and rows 3-15, columns 2-11/13-22 (row 1 and 16 were empty and not used). Compounds in solution were added to the assay plate (Greiner 781090) using an Echo (Labcyte) dose-response program (50 nl/well). The unstimulated and cell-free controls were loaded with 50 nl/well pure DMSO to ensure that the DMSO concentration was constant across the plate for all assays. 50 μl of the cell suspension was added to each well in columns 2-23 of the plate (˜10,000 cells per well). 50 μl of assay medium was added to each well in the cell-free controls (columns 1 and 24). The cells were incubated overnight at 37° C./5% CO2.
as §1, §2

EC50 [1] [nM]	EC50 [2] [nM]	Compound
> 10000	≤ 10	COc1c(CCN2CC(C(=O)O)C2)cc(F)cc1-c1nnc(-c2ccc(CC(C)C)c(C#N)c2)s1 [Example 15, 1-{2-[3-{5-[3-cyano-4-(2-methylpropyl)phenyl]-1,3,4-thiadiazol-2-yl}-5-fluoro-2-(methyloxy)phenyl]ethyl}-3-azetidinecarboxylic acid]
> 3160	< 100	CCc1c(CC2CCN(CCC(=O)O)CC2)cccc1-c1nsc(-c2ccc(OC(C)C)c(Cl)c2)n1 [Example 106, 3-(4-{[3-(5-{3-chloro-4-[(1-methylethyl)oxy]phenyl}-1,2,4-thiadiazol-3-yl)-2-ethylphenyl]methyl}-1-piperidinyl)propanoic acid trifluoroacetate]
> 3160	≤ 10	Cc1c(CCN2CCC(C(=O)O)CC2)cccc1-c1nnc(-c2ccc(OC(C)C)c(Cl)c2)s1 [Example 58, 1-{2-[3-(5-{3-chloro-4-[(1-methylethyl)oxy]phenyl}-1,3,4-thiadiazol-2-yl)-2-methylphenyl]ethyl}-4-piperidinecarboxylic acid]
> 10000	≤ 10	CCc1c(CN2CC[C@H](C(=O)O)C2)cccc1-c1cnc(-c2ccc(OC(C)C)c(C#N)c2)s1 [Example 84]
> 3160	< 1	CCc1c(CCN2CCCC(C(=O)O)C2)cccc1-c1cnc(-c2ccc(OC(C)C)c(C#N)c2)s1 (stereo not drawn) [Example 92]
> 10000	< 100	CCc1c(CC2CCN(CC(=O)O)CC2)cccc1-c1nsc(-c2ccc(OC(C)C)c(Cl)c2)n1 [Example 105, (4-{[3-(5-{3-chloro-4-[(1-methylethyl)oxy]phenyl}-1,2,4-thiadiazol-3-yl)-2-ethylphenyl]methyl}-1-piperidinyl)acetic acid trifluoroacetate]
> 10000	< 100	CCc1c(CN2CCC(CC(=O)O)CC2)cccc1-c1cnc(-c2ccc(OC(C)C)c(C#N)c2)s1 [Example 87]
> 3160	< 1	CCc1c(CCN2CCC(C(=O)O)CC2)cccc1-c1nnc(-c2ccc(CC(C)C)c(C#N)c2)s1 [Example 11, 1-[2-(3-{5-[3-cyano-4-(2-methylpropyl)phenyl]-1,3,4-thiadiazol-2-yl}-2-ethylphenyl)ethyl]-4-piperidinecarboxylic acid]
> 3160	< 100	CCc1c(CN2CCC(C(=O)O)CC2)cccc1-c1nsc(-c2ccc(OC(C)C)c(C(F)(F)F)c2)n1 [Example 18, 1-[(2-ethyl-3-{5-[4-[(1-methylethyl)oxy]-3-(trifluoromethyl)phenyl]-1,2,4-thiadiazol-3-yl}phenyl)methyl]-4-piperidinecarboxylic acid trifluoroacetate]
> 10000	< 1	CCc1c(CN2CC(C(=O)O)C2)cccc1-c1cnc(-c2ccc(OC(C)C)c(C#N)c2)s1 [Example 38, 1-{[3-(2-{3-cyano-4-[(1-methylethyl)oxy]phenyl}-1,3-thiazol-5-yl)-2-ethylphenyl]methyl}-3-azetidinecarboxylic acid trifluoroacetate]
> 10000	< 100	CCc1c(CN2CCCC(C(=O)O)C2)cccc1-c1nnc(-c2ccc(OC(C)C)c(Cl)c2)s1 (stereo not drawn) [Example 46]
> 3160	< 1	CCc1c(CN2CCC(C(=O)O)C2)cccc1-c1nnc(-c2ccc(CC(C)C)c(C#N)c2)s1 (stereo not drawn) [Example 48, 1-[(3-{5-[3-cyano-4-(2-methylpropyl)phenyl]-1,3,4-thiadiazol-2-yl}-2-ethylphenyl)methyl]-3-pyrrolidinecarboxylic acid]
> 3160	< 1	CCc1c(CCN2CCC[C@H](C(=O)O)C2)cccc1-c1nsc(-c2ccc(CC(C)C)c(C#N)c2)n1 [Example 80]
> 3160	≤ 10	CCc1c(CCCN2CCC(C(=O)O)C2)cccc1-c1cnc(-c2ccc(OC(C)C)c(C#N)c2)s1 (stereo not drawn) [Example 94]
> 3160	≤ 10	COc1c(CCN2CCC(C(=O)O)CC2)cccc1-c1nsc(-c2ccc(OC(C)C)c(Cl)c2)n1 [Example 73, 1-{2-[3-(5-{3-chloro-4-[(1-methylethyl)oxy]phenyl}-1,2,4-thiadiazol-3-yl)-2-(methyloxy)phenyl]ethyl}-4-piperidinecarboxylic acid trifluoroacetate]
> 10000	< 100	COc1c(CCN2CCC(C(=O)O)CC2)cc(F)cc1-c1nnc(-c2ccc(OC(C)C)c(C(F)(F)F)c2)s1 [Example 13, 1-{2-[5-fluoro-3-{5-[4-[(1-methylethyl)oxy]-3-(trifluoromethyl)phenyl]-1,3,4-thiadiazol-2-yl}-2-(methyloxy)phenyl]ethyl}-4-piperidinecarboxylic acid]
> 3160	< 1	CCc1c(CCN2CCCC(C(=O)O)C2)cccc1-c1nsc(-c2ccc(OC(C)C)c(Cl)c2)n1 (stereo not drawn) [Example 70]
> 3160	< 1	CCc1c(CCN2CC(C(=O)O)C2)cccc1-c1cnc(-c2ccc(OC(C)C)c(C#N)c2)s1 [Example 34, 1-{2-[3-(2-{3-cyano-4-[(1-methylethyl)oxy]phenyl}-1,3-thiazol-5-yl)-2-ethylphenyl]ethyl}-3-azetidinecarboxylic acid trifluoroacetate]
> 3160	< 1	CCc1c(CCN2CCC[C@H](C(=O)O)C2)cccc1-c1nnc(-c2ccc(OC(C)C)c(Cl)c2)s1 [Example 57]
> 3160	< 1	CCc1c(CCCN2CC(C(=O)O)C2)cccc1-c1cnc(-c2ccc(OC(C)C)c(C#N)c2)s1 [Example 93, 1-{3-[3-(2-{3-cyano-4-[(1-methylethyl)oxy]phenyl}-1,3-thiazol-5-yl)-2-ethylphenyl]propyl}-3-azetidinecarboxylic acid trifluoroacetate]
> 3160	< 1	CCc1c(CCN2CC[C@H](C(=O)O)C2)cccc1-c1nnc(-c2ccc(CC(C)C)c(C#N)c2)s1 [Example 62]
> 10000	< 100	CCc1c(CCN2CCC[C@H]2C(=O)O)cccc1-c1nnc(-c2ccc(OC(C)C)c(Cl)c2)s1 [Example 52]
> 10000	≤ 10	CCc1c(CN2CCC(C(=O)O)C2)cccc1-c1cnc(-c2ccc(OC(C)C)c(C#N)c2)s1 (stereo not drawn) [Example 83]
> 10000	≤ 10	CCc1c(-c2nsc(-c3ccc(CC(C)C)c(C#N)c3)n2)cccc1C1CN(CCCC(=O)O)C1 [Example 104, 4-[3-(3-{5-[3-cyano-4-(2-methylpropyl)phenyl]-1,2,4-thiadiazol-3-yl}-2-ethylphenyl)-1-azetidinyl]butanoic acid trifluoroacetate]

Source: patent US8389508B2 (Glaxo Group Limited, priority 2010, dated 2013)
